Amount released, percent release and concentration in supernatant data for one compound are collected here from US20230021329A1, “NANOSTRUCTURED BINARY GEL COMPOSITION AND USE THEREOF” (Veri Nano Inc., priority 2019, published 2023).

The data set is described as follows: Release study of agents from the gel. In kind it is physicochemical.
The mark [1] stands for this setting: release from hydrogel composition #4, 10 h in PBS.

Experimental: 25 ml of PBS was added to each of the beakers. The beakers were put on a plate shaker (Delfia 1296-004) and shaken at the “low” setting for 10 h. The liquid was centrifuged at 21130 rcf for 10 min, and the supernatants were taken for analysis.
BSA Protein release from the nanoparticles was quantified via nanodrop spectrophotometer to determine the concentration of protein in the supernatant, after creating a nanoparticle pellet on centrifugation, all these after 10 hours of incubation in PBS at room temperature.
The concentration released of the Rhodamine B was determined by talking the supernatant after 10 h, centrifuged and diluted the solution by 10×. Subsequently, the absorbance was measured by using a plate reader (Varioskan Lux) and compared to a calibration curve.

Consider `CCN(CC)c1ccc2c(-c3ccccc3C(=O)O)c3ccc(=[N+](CC)CC)cc-3oc2c1.[Cl-]` [Rhodamine B], for which, under setting [1], the amount released came out at 6.3 mg and the percent release amounted to 5.7%. The concentration in supernatant (release from hydrogel composition #4, supernatant after 10 h, absorbance vs calibration curve) was 252 μ/ml.
